In brackets after ≈: the same amount, converted by molar mass. Activity calls are given as the source filed them. The rule behind the calls is not given here.
Legend:
Adenosine receptor A1 [1] = biological target: T1, Adenosine receptor A1 (Rattus norvegicus, UniProt P25099); assay: Displacement of [3H]CCPA from A1 receptor in rat brain cortex membranes by liquid scintillation counting method; assay type: cell membranes
T1 sequence (P25099 whole entry): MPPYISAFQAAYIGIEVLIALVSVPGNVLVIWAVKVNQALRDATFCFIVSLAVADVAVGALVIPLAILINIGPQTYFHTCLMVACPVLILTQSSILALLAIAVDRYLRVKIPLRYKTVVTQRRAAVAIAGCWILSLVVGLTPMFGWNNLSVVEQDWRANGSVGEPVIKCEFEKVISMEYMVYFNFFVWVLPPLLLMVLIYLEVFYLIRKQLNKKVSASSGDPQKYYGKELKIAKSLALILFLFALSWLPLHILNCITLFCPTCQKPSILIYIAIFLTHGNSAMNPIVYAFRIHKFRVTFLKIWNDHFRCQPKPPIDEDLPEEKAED

[2] = biological target: T2, Adenosine receptor A1 (Rattus norvegicus) (UniProt P25099); assay: Displacement of [3H]CCPA from A1 receptor in rat brain cortex membranes at 1.5 uM by liquid scintillation counting method; assay type: cell membranes
T2 sequence (whole entry): T1 sequence (P25099 whole entry)

Adenosine receptor A2a [3] = biological target: Adenosine receptor A2a (Rattus norvegicus, UniProt P30543); assay: Displacement of [3H]MSX from A2A receptor in rat brain striatum membranes measured after 30 mins by liquid scintillation counting method; assay type: cell membranes
Chain of Adenosine receptor A2a (Rattus norvegicus, UniProt P30543) (P30543 whole entry): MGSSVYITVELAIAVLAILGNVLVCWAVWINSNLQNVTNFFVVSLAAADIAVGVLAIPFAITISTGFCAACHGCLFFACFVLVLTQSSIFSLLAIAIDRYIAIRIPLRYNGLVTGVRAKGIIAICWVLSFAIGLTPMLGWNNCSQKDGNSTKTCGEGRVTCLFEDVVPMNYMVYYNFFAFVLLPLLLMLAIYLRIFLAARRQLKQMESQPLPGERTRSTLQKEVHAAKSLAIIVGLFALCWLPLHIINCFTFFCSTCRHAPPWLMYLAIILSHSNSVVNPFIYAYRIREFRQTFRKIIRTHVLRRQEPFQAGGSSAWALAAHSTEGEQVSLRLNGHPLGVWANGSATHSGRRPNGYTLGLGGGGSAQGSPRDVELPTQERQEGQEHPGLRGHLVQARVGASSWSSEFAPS

[4] = biological target: Adenosine receptor A2a (Rattus norvegicus) (UniProt P30543); assay: Displacement of [3H]MSX from A2A receptor in rat brain striatum membranes at 1 uM measured after 30 mins by liquid scintillation counting method relative to control; assay type: cell membranes
Chain of Adenosine receptor A2a (Rattus norvegicus) (P30543 whole entry): as above

[5] = biological target: T3, Amine oxidase [flavin-containing] B (Homo sapiens, UniProt P27338); assay: Inhibition of recombinant human MAO-B expressed in baculovirus infected BTI insect cells preincubated for 30 mins followed by addition of p-tyramine as substrate measured over 45 mins by Amplex Red MAO assay
T3 sequence (P27338 whole entry): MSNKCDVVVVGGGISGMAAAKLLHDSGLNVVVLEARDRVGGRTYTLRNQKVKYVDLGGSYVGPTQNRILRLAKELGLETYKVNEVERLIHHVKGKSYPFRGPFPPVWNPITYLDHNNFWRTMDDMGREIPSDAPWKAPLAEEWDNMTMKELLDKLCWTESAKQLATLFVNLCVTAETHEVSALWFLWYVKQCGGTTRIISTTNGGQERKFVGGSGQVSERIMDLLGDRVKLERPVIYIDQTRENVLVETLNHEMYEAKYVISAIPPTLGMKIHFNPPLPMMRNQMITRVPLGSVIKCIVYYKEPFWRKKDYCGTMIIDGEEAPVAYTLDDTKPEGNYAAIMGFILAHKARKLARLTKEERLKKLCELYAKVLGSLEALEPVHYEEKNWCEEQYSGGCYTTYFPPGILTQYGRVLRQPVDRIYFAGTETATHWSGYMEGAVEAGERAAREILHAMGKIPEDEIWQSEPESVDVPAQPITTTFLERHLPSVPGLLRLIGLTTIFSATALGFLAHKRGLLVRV

[6] = biological target: T3, Amine oxidase [flavin-containing] B; assay: Inhibition of recombinant human MAO-B expressed in baculovirus infected BTI insect cells at 10 uM preincubated for 30 mins followed by addition of p-tyramine as substrate measured over 45 mins by Amplex Red MAO assay relative to control; conditions: 0.75 h
Adenosine receptor A2b = biological target: T4, Adenosine receptor A2b (Homo sapiens, UniProt P29275); assay: Displacement of [3H]PSB-603 from human A2B receptor expressed in CHO cell membrane; assay type: cell membranes
T4 sequence (P29275 whole entry): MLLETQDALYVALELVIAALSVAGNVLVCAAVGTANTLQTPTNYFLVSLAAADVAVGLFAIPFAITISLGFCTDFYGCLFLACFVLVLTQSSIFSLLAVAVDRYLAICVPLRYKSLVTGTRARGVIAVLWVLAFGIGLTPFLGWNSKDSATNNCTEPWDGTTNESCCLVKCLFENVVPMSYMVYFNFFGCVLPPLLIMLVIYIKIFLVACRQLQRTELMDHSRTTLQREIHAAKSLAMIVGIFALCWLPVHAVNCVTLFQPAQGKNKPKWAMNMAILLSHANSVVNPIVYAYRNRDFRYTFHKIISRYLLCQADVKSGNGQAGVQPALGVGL

[7] = biological target: T5, Adenosine receptor A2b (Homo sapiens) (UniProt P29275); assay: Displacement of [3H]PSB-603 from human A2B receptor expressed in CHO cell membrane at 1 uM relative to control; assay type: cell membranes
T5 sequence (whole entry): T4 sequence (P29275 whole entry)

Adenosine receptor A3 = biological target: T6, Adenosine receptor A3 (Homo sapiens, UniProt P0DMS8); assay: Displacement of [3H]PSB-11 from human A3 receptor expressed in CHO cell membrane by liquid scintillation counting method relative to control; assay type: cell membranes
T6 sequence (P0DMS8 whole entry): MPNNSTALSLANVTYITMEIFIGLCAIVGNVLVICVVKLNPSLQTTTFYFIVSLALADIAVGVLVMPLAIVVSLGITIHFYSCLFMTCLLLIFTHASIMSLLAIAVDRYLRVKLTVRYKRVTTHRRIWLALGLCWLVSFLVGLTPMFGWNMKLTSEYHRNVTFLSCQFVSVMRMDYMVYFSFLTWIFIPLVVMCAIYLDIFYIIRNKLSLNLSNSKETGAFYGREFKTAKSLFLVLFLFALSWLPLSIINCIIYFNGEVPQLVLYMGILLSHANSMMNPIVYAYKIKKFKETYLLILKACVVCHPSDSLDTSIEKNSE

[8] = biological target: T7, Adenosine receptor A3 (Homo sapiens) (UniProt P0DMS8); assay: Displacement of [3H]PSB-11 from human A3 receptor expressed in CHO cell membrane at 10 uM by liquid scintillation counting method relative to control relative to control; assay type: cell membranes
T7 sequence (whole entry): T6 sequence (P0DMS8 whole entry)

[9] = Thermodynamic solubility of the compound at pH 7.4; assay type: physicochemical; conditions: buffer, read-out: Therm_solubility
[10] = biological target: T5, Adenosine receptor A2b (Homo sapiens); assay: Displacement of [3H]PSB-603 from human A2B receptor expressed in CHO cell membrane at 0.3 uM relative to control; assay type: cell membranes
[11] = biological target: T7, Adenosine receptor A3 (Homo sapiens); assay: Displacement of [3H]PSB-11 from human A3 receptor expressed in CHO cell membrane at 3 uM by liquid scintillation counting method relative to control relative to control; assay type: cell membranes
[12] = Thermodynamic solubility of the compound at pH 1; assay type: physicochemical; conditions: buffer, read-out: Therm_solubility
[13] = Thermodynamic solubility of the compound at pH 4; assay type: physicochemical; conditions: buffer, read-out: Therm_solubility
[14] = biological target: T8, Amine oxidase [flavin-containing] A (Homo sapiens, UniProt P21397); assay: Inhibition of recombinant human MAO-A expressed in baculovirus infected BTI insect cells preincubated for 30 mins followed by addition of p-tyramine as substrate measured over 45 mins by Amplex Red MAO assay
T8 sequence (P21397 whole entry): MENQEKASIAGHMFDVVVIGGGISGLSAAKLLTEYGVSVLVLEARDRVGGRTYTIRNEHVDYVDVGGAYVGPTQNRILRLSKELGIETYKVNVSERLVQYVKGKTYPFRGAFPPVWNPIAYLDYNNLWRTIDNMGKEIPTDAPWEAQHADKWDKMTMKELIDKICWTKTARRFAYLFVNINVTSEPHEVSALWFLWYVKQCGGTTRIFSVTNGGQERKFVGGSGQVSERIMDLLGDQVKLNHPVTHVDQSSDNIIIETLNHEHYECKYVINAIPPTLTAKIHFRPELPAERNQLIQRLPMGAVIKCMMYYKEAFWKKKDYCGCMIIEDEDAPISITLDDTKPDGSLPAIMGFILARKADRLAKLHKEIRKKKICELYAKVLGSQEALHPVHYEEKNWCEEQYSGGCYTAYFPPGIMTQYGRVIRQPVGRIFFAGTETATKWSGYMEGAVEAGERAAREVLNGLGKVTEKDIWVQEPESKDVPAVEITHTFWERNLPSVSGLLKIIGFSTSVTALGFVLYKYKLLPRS

[15] = biological target: T8, Amine oxidase [flavin-containing] A; assay: Inhibition of recombinant human MAO-A expressed in baculovirus infected BTI insect cells at 10 uM preincubated for 30 mins followed by addition of p-tyramine as substrate measured over 45 mins by Amplex Red MAO assay relative to control; conditions: 0.75 h
Adenosine receptor A1 [16] = biological target: T9, Adenosine receptor A1 (Homo sapiens, UniProt P30542); assay: Displacement of [3H]CCPA from human A1 receptor expressed in CHO cell membrane by liquid scintillation counting method; assay type: cell membranes
T9 sequence (P30542 whole entry): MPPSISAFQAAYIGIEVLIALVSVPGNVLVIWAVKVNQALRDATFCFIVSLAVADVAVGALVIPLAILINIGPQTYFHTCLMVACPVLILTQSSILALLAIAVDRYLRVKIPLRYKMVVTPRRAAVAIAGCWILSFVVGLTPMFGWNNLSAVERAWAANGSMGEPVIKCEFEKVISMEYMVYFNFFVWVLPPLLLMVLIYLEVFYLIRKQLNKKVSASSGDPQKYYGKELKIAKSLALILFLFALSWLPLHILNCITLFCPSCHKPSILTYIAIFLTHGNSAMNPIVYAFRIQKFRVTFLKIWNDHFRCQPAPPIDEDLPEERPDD

Adenosine receptor A2a [17] = biological target: T10, Adenosine receptor A2a (Homo sapiens, UniProt P29274); assay: Displacement of [3H]MSX from human A2A receptor measured after 30 mins by liquid scintillation counting method
T10 sequence (P29274 whole entry): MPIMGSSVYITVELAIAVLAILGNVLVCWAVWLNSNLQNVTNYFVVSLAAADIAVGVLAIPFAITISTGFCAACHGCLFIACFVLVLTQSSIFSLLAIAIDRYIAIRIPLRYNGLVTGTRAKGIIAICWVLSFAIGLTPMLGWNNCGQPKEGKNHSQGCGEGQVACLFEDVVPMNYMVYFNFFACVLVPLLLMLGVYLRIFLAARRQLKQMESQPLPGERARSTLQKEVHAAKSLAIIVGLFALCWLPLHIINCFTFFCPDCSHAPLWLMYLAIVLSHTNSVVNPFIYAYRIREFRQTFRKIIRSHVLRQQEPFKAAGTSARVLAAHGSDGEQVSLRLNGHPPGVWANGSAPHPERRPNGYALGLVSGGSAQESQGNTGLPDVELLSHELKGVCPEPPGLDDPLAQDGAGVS

[18] = biological target: T11, Adenosine receptor A1 (Homo sapiens) (UniProt P30542); assay: Agonist activity at recombinant human A1 receptor expressed in CHO cells assessed as inhibition of forskolin-induced cAMP accumulation at 10 uM preincubated for 20 mins prior to forskolin-stimulation measure after 5 mins by liquid scintillation counting method; assay type: functional, cell-based
T11 sequence (whole entry): T9 sequence (P30542 whole entry)

[19] = biological target: T11, Adenosine receptor A1 (Homo sapiens); assay: Agonist activity at recombinant human A1 receptor expressed in CHO cells assessed as inhibition of forskolin-induced cAMP accumulation at 1 uM preincubated for 20 mins prior to forskolin-stimulation measure after 5 mins by liquid scintillation counting method; assay type: functional, cell-based
Adenosine receptor A2a [20] = biological target: T10, Adenosine receptor A2a; assay: Agonist activity at recombinant human A2A receptor expressed in CHO cells assessed as increase in forskolin-induced cAMP level at 10 uM preincubated for 20 mins prior to forskolin-stimulation measure after 5 mins by liquid scintillation counting method; assay type: functional, cell-based
Adenosine receptor A2a [21] = biological target: T10, Adenosine receptor A2a; assay: Agonist activity at recombinant human A2A receptor expressed in CHO cells assessed as increase in forskolin-induced cAMP level at 1 uM preincubated for 20 mins prior to forskolin-stimulation measure after 5 mins by liquid scintillation counting method; assay type: functional, cell-based

Compound	Ki (Adenosine receptor A1 [1])	Activity [2]	Ki (Adenosine receptor A2a [3])	Activity [4]	IC50 [5]	inhibition at 10 µM [6]	Ki (Adenosine receptor A2b)	Activity [7]	Ki (Adenosine receptor A3)	Activity [8]	solubility thermodynamic [9]	Activity [11]	solubility thermodynamic [12]	solubility thermodynamic [13]	IC50 [14]	inhibition at 10 µM [15]	Ki (Adenosine receptor A1 [16])	Ki (Adenosine receptor A2a [17])	Activity [18]	Activity [19]	also measured
C#CCN1CCn2c(nc3c2c(=O)n(C)c(=O)n3C)C1	> 1.5 µM	13%	> 1 µM	28%	> 10 µM	27%	> 0.3 µM	10%	> 10 µM	19%	800 µg/mL (≈ 2930 µM)	19%	–	–	–	–	–	–	–	–	Activity [10]: 10%
Cn1c(=O)c2c(nc3n2CCN(CCc2ccc4c(c2)OCO4)C3)n(C)c1=O	> 1.5 µM	5%	6.17 µM	–	> 10 µM	24%	> 1 µM	12%	> 3 µM	–	< 0.5 µg/mL	9%	300 µg/mL (≈ 782 µM)	1 µg/mL (≈ 2.61 µM)	–	–	–	–	–	–	–
Cn1c(=O)c2c(nc3n2CCN(CCCn2cccc2)C3)n(C)c1=O	> 1.5 µM	-4%	> 1 µM	10%	> 10 µM	27%	> 1 µM	10%	> 3 µM	–	< 70 µg/mL	3%	> 1500 µg/mL	< 200 µg/mL	> 10 µM	7%	–	–	–	–	–
Cn1c(=O)c2c(nc3n2CCN(Cc2csc(-c4ccc(C(F)(F)F)cc4)n2)C3)n(C)c1=O	0.157 µM	–	0.355 µM	–	10 µM	54%	> 1 µM	25%	7.49 µM	–	< 0.5 µg/mL	–	200 µg/mL (≈ 420 µM)	< 0.5 µg/mL	–	–	0.236 µM	0.217 µM	inactive	inactive	Activity (Adenosine receptor A2a [20]): inactive; Activity (Adenosine receptor A2a [21]): inactive
COc1ccc(Br)cc1CCN1CCn2c(nc3c2c(=O)n(C)c(=O)n3C)C1	> 1.5 µM	3%	> 1 µM	27%	> 10 µM	3%	> 1 µM	8%	> 3 µM	–	< 0.5 µg/mL	14%	300 µg/mL (≈ 669 µM)	< 0.5 µg/mL	> 10 µM	34%	–	–	–	–	–
Cn1c(=O)c2c(nc3n2CCN(Cc2csc(-c4cccs4)n2)C3)n(C)c1=O	0.166 µM	–	0.121 µM	–	> 10 µM	33%	> 1 µM	3%	≥ 10 µM	46%	700 µg/mL (≈ 1690 µM)	–	–	–	–	–	0.642 µM	0.203 µM	inactive	inactive	Activity (Adenosine receptor A2a [20]): inactive; Activity (Adenosine receptor A2a [21]): inactive

From ChEMBL document CHEMBL4428125, “8-Substituted 1,3-dimethyltetrahydropyrazino[2,1-f]purinediones: Water-soluble adenosine receptor antagonists and monoamine oxidase B inhibitors” (Bioorg Med Chem, 2016)
